Data: patent US20230144203A1 (SHANGHAI SENHUI MEDICINE CO., LTD., priority 2020, published 2023)
Like-named read-outs stand apart in the source and are kept apart here.

Legend:
SKBR3 tumor cells = experiment: Test Example 1 in vitro cytotoxic activity screening (CTG); format: cell-based; details: for IC50: Homo sapiens, SK-BR-3
Description: (§1) The CTG is used for detecting the ATP content in the experiment, and the survival condition of the tumor cells is reflected. […] The killing effect of the toxin molecule was then assayed according to this condition. 1.2. Selection of cell lines
(§2) According to the purpose of the experiment, two disease models of breast cancer and NSCLC were selected, and SKBR3 tumor cells (HER2+, ATCC, Cat #HTB-30), MDA-MB-468 (HER2-, ATCC, Cat #HTB-132) and A549 (human non-small cell lung cancer cells, ATCC, Cat #CCL-185) were selected for screening.
(§3) 2) Cell plating: A549 cells were digested with trypsin, and the cells were terminated with the above medium, and 4.3×10^5, 7.2×10^5 and 11.5×10^5 cells were added to the medium to give a final volume of 26 mL. 180 μL of cell suspension was added to each well in columns 2 to 11 of a 96-well plate (coming, Cat #3903) to give cell densities of 3K, 5K and 8K per well. Wells in column 12 were filled with 200 μL of culture medium and the remaining wells were filled with PBS. The above operations were repeated on the SKBR3 and MDA-MB-468 cells. The sample was duplicated.
(§4) 2 mM of stock solution (stock diluted 10-fold in DMSO) was prepared in column 1 of drug preparation plate 1, then 10-fold dilution in DMSO by gradient was performed in column 10, and the wells in column 11 were filled with DMSO. 95 μL of corresponding culture solution was added into each well from column 2 to column 11 of the drug preparation plate 2, 5 μL of solution was pipetted from column 2 to column 11 of drug preparation plate 1 to drug preparation plate 2, the solution was mixed well, 20 μL of solution was pipetted, added into the plated cells, and continuously cultured for 3 days and 5 days.
(§5) 4) CTG assay (Cell Titer-Glo™, luminescent cell viability assay, Promega): the cell plates were removed on day 3 and day 5, and balanced to room temperature. 90 μL of CTG was added into each well and reacted at room temperature for 10 min in the dark. The absorption value was read using a microplate reader and IC50 was calculated.

MDA-MB-468 [1] = experiment: as above; format: cell-based; details: for IC50: Homo sapiens
Description: as §1, §2, §3, §4, §5

[2] = Test Example 6 pharmacokinetic study in beagles; details: male, beagle, dog, iv, 0.5 mg/kg
Description: The pharmacokinetic performance in beagles of the compounds of the present disclosure was studied and the pharmacokinetic profile thereof was evaluated.
Male 6 beagles were divided into 2 groups of 3, purchased from Shanghai Medicilon Inc., and subjected to administration test.
Plasma samples were stored in a refrigerator at −80° C. prior to testing. […] The plasma concentration of the test compounds in beagles after drug injection was determined: after administration, 25 μL of beagle plasma at various times after administration was taken, and added with 50 μL (100 ng/mL) of internal standard solution camptothecin (National Institutes for Drug Control) and 200 μL of acetonitrile. The mixture was vortexed for 5 min and centrifuged for 10 min (3700 rpm/min). 3 to 4 μL of the supernatant of the plasma sample was subjected to LC/MS assay (API4000 triple quadrupole tandem mass spectrometer (No. 2), Applied Biosystems, USA; Shimadzu, LC-30AD ultra high performance liquid chromatography system, Shimadzu, Japan.) The analysis was performed.

A549 [3] = experiment: Test Example 1 in vitro cytotoxic activity screening (CTG); format: cell-based, human; details: for IC50: Homo sapiens
Description: as §1, §2, §3, §4, §5

A549 [4] = experiment: Test Example 2 in vitro cytotoxic activity screening (CTG); format: cell-based; details: for IC50: Homo sapiens
Description: (§6) The CTG is used for detecting the ATP content in the experiment, and the survival condition of the tumor cells is reflected.
(§7) A549, SKBR3 and MDA-MB-468 were digested with trypsin, and each was resuspended in culture medium to a cell density of 2.2×10^4 cells/mL, and 135 μL of cell suspension was added to each well in columns 2 to 11 of a 96-well plate, and column 12 was set as blank control. The cells were incubated in an incubator for 24 h at 37° C. with 5% CO2.
(§8) a) Stock solution preparation: the test compound and positive control drug were dissolved in DMSO to give a stock solution at a concentration of 5 mM.
(§9) b) Drug preparation plate 1: stock solution in column 1 was initially diluted 40-fold, and 3-fold gradient dilutions were performed sequentially in column 2 to column 11. Column 12 was filled with DMSO.
(§10) c) Drug preparation plate 2: 196 μL of the corresponding culture medium was added into columns 2 to 11, and 4 μL of culture medium was pipetted from column 3 to column 12 of drug preparation plate 1 to column 2 to column 11 of drug preparation plate
(§11) 15 μL of culture medium was pipetted from the drug preparation plate 2 and added into the plated cells. The cells were continuously incubated in an incubator for 5 h at 37° C. with 5% CO2.
as §5, with “2.4)” for “4)”, “assay):” for “assay, Promega):”, “removed” for “removed on day 3 and day 5,”, “75” for “90”

MDA-MB-468 [5] = experiment: as above; format: cell-based; details: for IC50: Homo sapiens
Description: as §6, §7, §8, §9, §10, §11
as §5, with “2.4)” for “4)”, “assay):” for “assay, Promega):”, “removed” for “removed on day 3 and day 5,”, “75” for “90”

SKBR3 = experiment: as above; format: cell-based; details: for IC50: Homo sapiens
Description: as §6, §7, §8, §9, §10, §11
as §5, with “2.4)” for “4)”, “assay):” for “assay, Promega):”, “removed” for “removed on day 3 and day 5,”, “75” for “90”

[6] = MDA-MB-468, CTG, read-out: IC50
[7] = SK-BR-3, SKBR3, CTG, incubated 5 h, read-out: IC50

For `C=C1C[C@@H]2CC[C@@]34C[C@H]5O[C@H]6[C@@H](O3)[C@H]3O[C@H](CC[C@@H]3O[C@H]6[C@H]5O4)CC(=O)C[C@@H]3[C@@H](OC)[C@@H](C[C@@H](CN)OC)O[C@H]3C[C@H]3O[C@@H](CC[C@@H]1O2)C[C@@H](C)C3=C` [Compound D-1], the IC50 (SKBR3 tumor cells) was 0.205 nM, the Maximum inhibition (SKBR3 tumor cells; SKBR3, CTG) was 96.87% and the IC50 (MDA-MB-468 [1]; MDA-MB-468) was 0.183 nM. For the same compound, the Maximum inhibition (MDA-MB-468 [1]; MDA-MB-468, CTG) was 88.01%, the AUC(0-t) ([2]; in vivo) was 433 ng·h/mL and the MRT ([2]; in vivo) was 41.1 h. The Vd ([2]; in vivo) was 22 L/kg, the clearance ([2]; in vivo) was 8.9 mL/min/kg and the concentration at 5 min ([2]; in vivo) was 82.1 ng/mL. It also gave a half-life ([2]; in vivo) of 29.3 h, a Maximum inhibition (A549 [3]; A549, CTG) of 81.34% and an IC50 (A549 [3]; A549) of 0.515 nM.
With `C=C1C[C@@H]2CC[C@@]34C[C@H]5O[C@H]6[C@@H](O3)[C@H]3O[C@H](CC[C@@H]3O[C@H]6[C@H]5O4)CC(=O)C[C@@H]3[C@@H](OC)[C@@H](C[C@H](O)CNC(=O)[C@H](O)C4CC4)O[C@H]3C[C@H]3O[C@@H](CC[C@@H]1O2)C[C@@H](C)C3=C` [Compound D-2] the IC50 (SKBR3 tumor cells; SKBR3, CTG, read-out: IC50) was 0.839 nM, the IC50 (MDA-MB-468 [1]; [6]) was 0.909 nM and the IC50 (A549 [3]; A549, CTG, read-out: IC50) was 3.16 nM.
In the case of `C=C1C[C@@H]2CC[C@@]34C[C@H]5O[C@H]6[C@@H](O3)[C@H]3O[C@H](CC[C@@H]3O[C@H]6[C@H]5O4)CC(=O)C[C@@H]3[C@@H](OC)[C@@H](C[C@@H](CNC(=O)[C@H](O)C4CC4)OC)O[C@H]3C[C@H]3O[C@@H](CC[C@@H]1O2)C[C@@H](C)C3=C` [Compound D-3], the IC50 (SKBR3 tumor cells) is reported as 1.36 nM, the IC50 (MDA-MB-468 [1]; MDA-MB-468) is reported as 1.67 nM and the Maximum inhibition (A549 [4]; A549, CTG, incubated 5 h) is reported as 63.03%. The IC50 (A549 [4]; A549, 5 h) was 2.17 nM, the IC50 (MDA-MB-468 [5]; MDA-MB-468, 5 h) was 1.98 nM and the Maximum inhibition (MDA-MB-468 [5]; MDA-MB-468, CTG, incubated 5 h) was 90.94%. It also gave an IC50 (SKBR3; SK-BR-3, 5 h) of 1.18 nM, a Maximum inhibition (SKBR3; SKBR3, CTG, incubated 5 h) of 96.36% and an IC50 (A549 [3]; A549) of 5.14 nM.
For `C=C1C[C@@H]2CC[C@]34C[C@@H]5O[C@H]6[C@@H](O3)[C@@H]3O[C@H](CC[C@@H]3O[C@@H]6[C@H]5O4)CC(=O)C[C@@H]3[C@H](OC)[C@@H](C[C@H](O)CNC(=O)CO)O[C@H]3C[C@H]3O[C@@H](CC[C@@H]1O2)C[C@H](C)C3=C` [Compound D-4], the IC50 (SKBR3 tumor cells; SKBR3, CTG, read-out: IC50) was 1.3 nM, the IC50 (MDA-MB-468 [1]; [6]) was 1.78 nM and the Maximum inhibition (A549 [4]; A549, CTG, incubated 5 h) was 62.09%. It also gave an IC50 (A549 [4]; A549, CTG, incubated 5 h, read-out: IC50) of 3.08 nM, an IC50 (MDA-MB-468 [5]; MDA-MB-468, CTG, incubated 5 h, read-out: IC50) of 1.88 nM and a Maximum inhibition (MDA-MB-468 [5]; MDA-MB-468, CTG, incubated 5 h) of 89.43%. For the same compound, the IC50 (SKBR3; [7]) was 1.09 nM, the Maximum inhibition (SKBR3; SKBR3, CTG, incubated 5 h) was 96.85% and the IC50 (A549 [3]; A549, CTG, read-out: IC50) was 5.61 nM.
Compound `C=C1C[C@@H]2CC[C@@]34C[C@H]5O[C@H]6[C@@H](O3)[C@H]3O[C@H](CC[C@@H]3O[C@H]6[C@H]5O4)CC(=O)C[C@@H]3[C@@H](OC)[C@@H](C[C@H](O)CNC(=O)C4(O)CC4)O[C@H]3C[C@H]3O[C@@H](CC[C@@H]1O2)C[C@@H](C)C3=C` [Compound D-5] has an IC50 (SKBR3 tumor cells; SKBR3, CTG, read-out: IC50) of 0.383 nM and an IC50 (A549 [3]; A549, CTG, read-out: IC50) of 4.02 nM.
Work on `C=C1C[C@@H]2CC[C@@]34C[C@H]5O[C@H]6[C@@H](O3)[C@H]3O[C@H](CC[C@@H]3O[C@H]6[C@H]5O4)CC(=O)C[C@@H]3[C@@H](OC)[C@@H](C[C@H](O)COC(=O)[C@H](O)C4CC4)O[C@H]3C[C@H]3O[C@@H](CC[C@@H]1O2)C[C@@H](C)C3=C` [Compound D-6] yielded an IC50 (SKBR3 tumor cells; SKBR3, CTG, read-out: IC50) of 0.294 nM, an IC50 (MDA-MB-468 [1]; [6]) of 0.996 nM and an IC50 (A549 [3]; A549, CTG, read-out: IC50) of 1.85 nM.
For `C=C1C[C@@H]2CC[C@@]34C[C@H]5O[C@H]6[C@@H](O3)[C@H]3O[C@H](CC[C@@H]3O[C@H]6[C@H]5O4)CC(=O)C[C@@H]3[C@@H](OC)[C@@H](C[C@H](O)COC(=O)C4(O)CC4)O[C@H]3C[C@H]3O[C@@H](CC[C@@H]1O2)C[C@@H](C)C3=C` [Compound D-7], the IC50 (SKBR3 tumor cells; SKBR3, CTG, read-out: IC50) was 0.481 nM, the IC50 (MDA-MB-468 [1]; [6]) was 0.903 nM and the IC50 (A549 [3]; A549, CTG, read-out: IC50) was 1.78 nM.
In the case of `C=C1C[C@@H]2CC[C@@]34C[C@H]5O[C@H]6[C@@H](O3)[C@H]3O[C@H](CC[C@@H]3O[C@H]6[C@H]5O4)CC(=O)C[C@@H]3[C@@H](OC)[C@@H](C[C@H](O)COC(=O)c4ccc(CO)cc4)O[C@H]3C[C@H]3O[C@@H](CC[C@@H]1O2)C[C@@H](C)C3=C` [Compound D-8], the IC50 (SKBR3 tumor cells; SKBR3, CTG, read-out: IC50) is reported as 0.33 nM, the IC50 (MDA-MB-468 [1]; [6]) is reported as 0.843 nM and the IC50 (A549 [3]; A549, CTG, read-out: IC50) is reported as 0.811 nM.
Compound `C=C1C[C@@H]2CC[C@@]34C[C@H]5O[C@H]6[C@@H](O3)[C@H]3O[C@H](CC[C@@H]3O[C@H]6[C@H]5O4)CC(=O)C[C@@H]3[C@@H](OC)[C@@H](C[C@H](O)CNC)O[C@H]3C[C@H]3O[C@@H](CC[C@@H]1O2)C[C@@H](C)C3=C` [Compound E-305, reference compound] has a Maximum inhibition (A549 [4]; A549, CTG, incubated 5 h) of 61.27%, an IC50 (A549 [4]; A549, 5 h) of 2.1 nM and an IC50 (MDA-MB-468 [5]; MDA-MB-468, 5 h) of 1.17 nM. The Maximum inhibition (MDA-MB-468 [5]; MDA-MB-468, CTG, incubated 5 h) was 88.53%, the IC50 (SKBR3; [7]) was 0.571 nM and the Maximum inhibition (SKBR3; SKBR3, CTG, incubated 5 h) was 96.42%.
For `C=C1C[C@@H]2CC[C@@]34C[C@H]5O[C@H]6[C@@H](O3)[C@H]3O[C@H](CC[C@@H]3O[C@H]6[C@H]5O4)CC(=O)C[C@@H]3[C@@H](OC)[C@@H](C[C@H](O)CN)O[C@H]3C[C@H]3O[C@@H](CC[C@@H]1O2)C[C@@H](C)C3=C` [Eribulin, eribulin, reference compound], the Maximum inhibition (SKBR3 tumor cells; SKBR3, CTG) was 94.90%, the Maximum inhibition (MDA-MB-468 [1]; MDA-MB-468, CTG) was 87.47% and the concentration at 5 min [2] was 217 ng/mL. For the same compound, the Maximum inhibition (A549 [3]; A549, CTG) was 81.50%.
